Measured values from patent US10974036B2, “Implantable device for long-term delivery of drugs” (Delpor, Inc., priority 2009, dated 2021).
Converted amounts (≈) assume the structure as drawn. “And” between values parts separate entries of the source, which are not always exact repeats. Equal entries are not always repeated. Where two headings read alike, the source gives them in different places.

Experiments:
in vivo = settings: human, plasma, iv
[1] = cited from earlier work
[2] = cited from earlier work; remark: listed apart in the source
[3] = In vivo plasma concentration after subcutaneous implantation of devices in rats (Example 5, FIG. 12B); settings: subcutaneous device containing risperidone only, first week
Protocol: For in vivo experiments, rats were anesthetized and devices placed subcutaneously in the dorsum, lateral to the midline, using a trocar. Whole blood samples were obtained by tail vein venous puncture. Plasma was immediately separated from formed elements by centrifugation. […] The lower limit of quantitation was 0.10 ng/mL.

[4] = PBS, 37° C.
Protocol: In yet another study, devices were prepared as described herein an tested in vitro and in vivo.
Two groups of devices (n=6) were prepared. The main body of each device consisted of a cylindrical titanium tube, definining an internal reservoir. The tubes were 35 mm in length, with an outer diameter (OD) of 4.3 mm and an inner diameter (ID) of about 3 mm (Peridot Manufacturing, Pleasanton, Calif.). Both ends of each tube were tapered (lathed) so as to accept a press cap which served to retain a porous partition, as illustrated in FIGS. 4-5. The first group of devices was fitted on one end with a titanium sintered frit having a diameter 3.5 mm, a depth 0.5 mm, and a 5 micron nominal particle retention size (Applied Porous Materials, Farmington, Conn.). The frit was secured in each tube by placing the tube horizontally in a holder, and then positioning over the open end, in sequence, the frit, an o-ring and the press cap.
A 2.5 mm stainless steel ball was placed in the reservoir to provide mixing. A second frit was sealed to the remaining open end of the reservoir using the same procedure as described above for the other end. […]
Both groups of devices were equally split, each subgroup of 3 devices destined for either in vitro or in vivo testing. In vitro release rate was determined by submerging the devices in 1 mL PBS held in screw cap cryo-vials. […]

[5] = In vitro release of risperidone, Franz-type diffusion cells with different porous partitions (Example 1); type: physicochemical; settings: after 3-4 day equilibration phase, suspension with PLGA, room temperature
From the text: As described in Example 1, typical Franz-type diffusion cells were fitted with a porous partition separating a donor chamber from a receptor chamber. The partitions were selected to span a wide range of pore sizes (i.e., molecular weight cut-off or “MWCO”, values or nominal pose diameter) The porous partitions selected for use in this study had molecular weight cut-off values of 100,000 Daltons and 3,000 Daltons. In addition, a porous partition in the form of a […] polyvinyldenefluoride membrane filter (Durapore®) was used.
Sustained, substantially zero-order release rate was obtained, as best seen in FIG. 7B.
Typical Franz-type diffusion cells were fitted with porous partitions separating a donor chamber from a receptor chamber. The porous partitions were membranes with pore sizes of 3,000 Daltons molecular weight cut-off, 100,000 Daltons molecular weight cut-off and a 0.45 micron polyvinyldenefluoride membrane filter (Durapore®). […] The cells were maintained at room temperature. […] Buffer was replaced each day.

[6] = 100 mg risperidone, PBS pH 7.4, 37° C.
Protocol: Two groups of drug delivery devices were assembled as follows. Cylindrical titanium tubes, 4 mm in diameter and 35 mm in length, were prepared. […] The reservoirs of the devices were filled with phosphate buffered saline (PBS) at pH 7.4 under reduced pressure. Each of the devices in Group B was fitted with two regenerated cellulose membranes (5000 Daltons molecular weight cut off) at each end of the cylindrical tube by sandwiching the membrane between an o-ring and titanium frit (5 micron pores), as illustrated in FIGS. 5A-5B. The devices in Group A were identical, except the cellulose membrane was omitted, as illustrated in FIGS. 4A-4B. The devices were then placed individually in tubes containing approximately 1 mL PBS. The tubes were placed on a rotating rack (1 revolution per hour) at 37° C.
Buffer was diluted to 20-50 micrograms/mL prior to measurement to insure that the concentration was within the linear range of the UV measurement. Buffer was replaced each day.

Structure (SMILES)	clearance (in vivo)	Half-life ([1]; in vivo)	Target Steady state plasma conc ([1]; in vivo)	CL(L/hr) (iv) [1]	Water solubility (mg/mL) acidic pH ([2]; acidic pH)	Water solubility (mg/mL) neutral pH [2]	Bioavailability oral [1]	also measured
Cc1cc2c(s1)Nc1ccccc1N=C2N1CCN(C)CC1 [Olanzapine, olanzapine]	–	–	30 ng/mL	–	–	–	60%	–
Cc1nc2n(c(=O)c1CCN1CCC(c3noc4cc(F)ccc34)CC1)CCCC2O (stereo not shown) [Paliperidone, paliperidone]	–	24 h	–	–	–	0.54 mg/mL	–	Water solubility acidic pH relative to neutral pH ([2]; acidic pH): 100 x neutral
Cc1nc2n(c(=O)c1CCN1CCC(c3noc4cc(F)ccc34)CC1)CCCC2 [Risperidone, risperidone]	–	–	20 ng/mL	–	–	–	–	plasma levels of risperidone (plus 9-hydroxyrisperidone) [3]: barely detectable; in vitro release rate ([4]; devices with PLGA (15 mg 50:50 and 50 mg 85:15), maintained for 30 days): above 0.4 mg/day; in vitro release rate ([4]; devices without PLGA, throughout 30 days): less than 0.05 mg/day; release rate (5 mg 85:15 PLGA in suspension (FIG. 9)): 0.25 mg/day; release rate (10 mg 85:15 PLGA in suspension (FIG. 9)): 0.43 mg/day; release rate (15 mg 85:15 PLGA in suspension (FIG. 9)): 0.64 mg/day; release rate of risperidone ([5]; 0.45 polyvinyldenefluoride membrane filter (Durapore)): 70 µg/day; release rate of risperidone ([5]; porous partition 3,000 Dalton molecular weight cut-off): 100 µg/day; release rate of risperidone ([5]; porous partition 100,000 Dalton molecular weight cut-off): 200 µg/day; average release rate ([6]; devices with 5 mg 50:50 PLGA and 15 mg 85:15 PLGA (Group B)): 1 to 1.2 mg/day; release rate ([6]; devices without PLGA (Group A)): less than 0.05 mg/day

Now from value to molecule, other results behind:

clearance (in vivo)	Structure (SMILES)	Half-life ([1]; in vivo)	Target Steady state plasma conc ([1]; in vivo)	CL(L/hr) (iv) [1]	Water solubility (mg/mL) acidic pH ([2]; acidic pH)	Water solubility (mg/mL) neutral pH [2]	Bioavailability oral [1]	also measured
39.6 mL/min	O=C1CCc2ccc(OCCCCN3CCN(c4cccc(Cl)c4Cl)CC3)cc2N1 [Aripiprazole, aripiprazole]	3 h	100 ng/mL	2.37 L/h	–	–	–	–
867 mL/min	CN1CC2c3ccccc3Oc3ccc(Cl)cc3C2C1 (stereo not shown) [Asenapine, asenapine]	24 h	2.1 ng/mL	52 L/h	13 mg/mL	3.0 mg/mL	< 2%	solubility ([2]; in 0.1N HCl): 13000 µg/mL (≈ 45.5 mM); water solubility ([2]; pH 7-7.4): 3000 µg/mL (≈ 10.5 mM); water solubility ([2]; pH 7.0): 3000 µg/mL (≈ 10.5 mM); plasma clearance ([1]; in vivo): 52 L/h; Bioavailability sublingual ([1]; sublingual): 30%
667 mL/min	O=C(CCCN1CCC(O)(c2ccc(Cl)cc2)CC1)c1ccc(F)cc1 [Haloperidol, haloperidol]	29 h	2 ng/mL	42 L/h and 22 L/h	4.2 mg/mL	0.025 mg/mL	65%	–
